The target of experiment [1] is Mitogen-activated protein kinase 14 (Homo sapiens) (UniProt Q16539). Particulars: HeLa, dose 50.0 µM.
Experiment [2] has the same target. Particulars: HeLa, dose 50.0 µM. The source holds these as a separate data set.

Molecules are shown by their SMILES. Calls of active or inactive are those of the source. No cut-off for these calls is given here.

For four compounds, ΔTm and Tm results are on record in ChEMBL document CHEMBL4715823, “Homogeneous Assay for Target Engagement Utilizing Bioluminescent Thermal Shift” (ACS Med Chem Lett, 2018).

Chain of Mitogen-activated protein kinase 14 (Homo sapiens) (Q16539 whole entry): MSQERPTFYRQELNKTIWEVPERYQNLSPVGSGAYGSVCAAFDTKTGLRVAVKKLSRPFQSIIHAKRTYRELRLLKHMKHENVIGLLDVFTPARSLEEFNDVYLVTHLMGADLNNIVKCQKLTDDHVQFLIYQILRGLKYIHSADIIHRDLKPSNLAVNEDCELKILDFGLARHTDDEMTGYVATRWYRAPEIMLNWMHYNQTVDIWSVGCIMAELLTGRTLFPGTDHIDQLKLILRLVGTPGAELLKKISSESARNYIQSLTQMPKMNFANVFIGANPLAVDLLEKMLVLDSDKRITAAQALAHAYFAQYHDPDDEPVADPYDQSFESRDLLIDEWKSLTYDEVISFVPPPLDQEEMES

In the case of `C/C(O)=C(\C#N)C(=O)Nc1cc(Br)ccc1Br`, the ΔTm (usually the shift of the melting midpoint relative to a reference) in experiment [1] amounted to 3.43 °C.

On to `Cc1ncc(-c2ccnc(Nc3ccc(S(C)(=O)=O)cc3)n2)n1C(C)C`, for which the Tm result in experiment [2] was “inactive”.

As to `Oc1ccc(-c2nc(-c3ccc(F)cc3)c(-c3ccncc3)[nH]2)cc1`, the ΔTm in experiment [1] came out at 7.8 °C.

As for `CC(C)(C)n1nc(-c2ccc(Cl)cc2)c2c(N)ncnc21`, the ΔTm in experiment [1] worked out at 1.17 °C.
